Assay results reported in patent US4379091A, “Esters of arylpropionic acids endowed with an anti-inflammatory activity” (priority 1980, dated 1983).

How the values were obtained:
[1] = tested on: gastric mucosa; assay: gastric injuring effects; type: in vivo, Wistar rats
Description: The compounds were given intraperitoneally at the equimolar dose of 500 mg/kg. The animals were killed 5 hours after the treatment in order to assess the conditions of the gastric mucosa, and the possible presence of bleedings and ulcers.

[2] = tested on: abdominal squirmings (phenylquinone); assay: analgesic activity: abdominal squirmings induced by phenylquinone; type: in vivo; conditions: oral, 100 mg/kg (equimolar doses), one hour before; 20 minutes observation
Description: Abdominal squirmings were induced by an intraperitoneal injection in saline, given at the dose of 4 mg/kg/20 ml.

[3] = tested on: squirmings (acetylcholine); assay: acetylcholine test: squirmings induced by acetylcholine; type: in vivo, mouse; conditions: oral, one hour before acetylcholine, equimolar doses; 4 minutes observation
Description: Squirmings were induced by an intraperitoneal injection of acetylcholine ([…]; 0.5 ml per mouse); both compounds were given orally one hour before the administration of acetylcholine at the dose of 10 mg/kg, in equimolar doses. […] The results reported below were obtained in comparison with the control group: […]

[4] = tested on: carrageenin edema; assay: carrageenin edema test in the rat (percent protection); type: in vivo, rat (Wistar); conditions: oral, ibuprofen 100 mg/kg, MR-653 200 mg/kg (equimolar)
[5] = plasma kinetics of ibuprofen and MR-653 in the male rat
Description: The investigational drugs were given by oral gavage, suspended in 0.5 percent gum arabic; an analogous suspension was used in the case of the intraperitoneal administration.

[6] = tested on: carrageenin edema; assay: carrageenin edema test in the rat (percent protection); type: in vivo, rat (Wistar); conditions: for peak of activity (time) / time course of activity after the peak: carrageenin edema; for peak of activity (time) / time course of activity after the peak / Percent protection from the carrageenin edema: oral; for Percent protection from the carrageenin edema: detection after 4 hours, ibuprofen 100 mg/kg, MR-653 200 mg/kg (equimolar)
Description: 1 percent carrageenin in saline was given, at the rate of 0.1 ml subcutaneously, into the plantar area of the left paw.
The compounds were administered 1, 3 and 6 hours respectively before the carrageenin injection; the related values were always read 4 hours after the carrageenin injection, duly assessing the percent swelling of the paw versus the value at the time 0 (carrageenin inocula). The results are expressed as percent protection considering the swelling in the control group as equal to 100.

[7] = tested on: mouse; assay: acute toxicity, oral LD 50 in the mouse; type: in vivo; conditions: versus the corresponding acid (ibuprofen for MR-653)
[8] = acute toxicity, oral LD 50 in the mouse; type: in vivo; conditions: in vivo; mouse, oral
[9] = solubility; type: physicochemical
[10] = intraperitoneal, equimolar dose of 500 mg/kg, 5 hours after treatment

Row | SMILES | incidence of punctiform ulcer [1, 10] [%] | protection versus the control group (phenylquinone squirming) [2] [%] | protection versus control group (acetylcholine squirming) [3] [%] | Percent protection from the carrageenin edema ([4]; detection after 1 hour) [%] | Percent protection from the carrageenin edema ([4]; detection after 2 hours) [%] | Percent protection from the carrageenin edema ([4]; detection after 3 hours) [%] | Percent protection from the carrageenin edema ([4]; detection after 6 hours) [%] | peak of activity (time) ([6]; equimolar doses) | time course of activity after the peak ([6]; equimolar doses) | Percent protection from the carrageenin edema [6] [%] | also measured
1 | CC(C)Cc1ccc(C(C)C(=O)O)cc1 (stereo not drawn) [Ibuprofen, 2-(4-isobutyl-phenyl) propionic acid] | 14 | 20 | 50 | 60 | 44 | 28 | 20 | around the first hour | rapid and progressive decrease even starting from the second hour | 24 | condition of stomach / peritoneum ([1]; rat, in vivo, ip, 500 mg/kg): almost normal mucosa with a fair quantity of a yellowish foamy secretion; time of peak of the plasma levels of ibuprofen ([5]; plasma kinetics, oral): at the first hour; AUC at 7 h ([5]; rat, in vivo, ip, 58.8 mg/kg): ~325 µg·h/mL; concentration at 0.5 h ([5]; rat, in vivo, ip, 58.8 mg/kg): 215000 ± 33400 ng/mL; concentration at 1 h ([5]; rat, in vivo, ip, 58.8 mg/kg): 105000 ± 12400 ng/mL; concentration at 2 h ([5]; rat, in vivo, ip, 58.8 mg/kg): 18300 ± 11000 ng/mL; concentration at 7 h ([5]; rat, in vivo, ip, 58.8 mg/kg): 6200 ± 2400 ng/mL; AUC at 7 h ([5]; rat, in vivo, po, 58.8 mg/kg): ~190 µg·h/mL; concentration at 1 h ([5]; rat, in vivo, po, 58.8 mg/kg): 71700 ± 23600 ng/mL; concentration at 2 h ([5]; rat, in vivo, po, 58.8 mg/kg): 32200 ± 7700 ng/mL; concentration at 5 h ([5]; rat, in vivo, po, 58.8 mg/kg): 12100 ± 22000 ng/mL; concentration at 7 h ([5]; rat, in vivo, po, 58.8 mg/kg): 9100 ± 1500 ng/mL
2 | CC(C)Cc1ccc(C(C)C(=O)OCCOCCOCCOCCO)cc1 (stereo not drawn) [MR-653, Monoester of 2-(4-isobutyl-phenyl)propionic acid with tetraethylene glycol] | 16 | 20 | 48 | 64 | 59 | 47 | 34 | around the first hour | markedly slower | 44 | toxicity compared with the corresponding acid [7]: practically unchanged values of toxicity and gastric injuring effects; LD50 [8]: > 2000 mg/kg; condition of stomach / peritoneum [1, 10]: mildly hyperemic peritoneal exudate; gastric injuring effects compared with the corresponding acid ([1]; versus the corresponding acid (ibuprofen for MR-653)): practically unchanged values of toxicity and gastric injuring effects; solubility in organic solvents ([9]; methanol, diethyl ether, acetone and chloroform): soluble on the other hand in methanol, diethyl ether, acetone and chloroform; solubility in water ([9]; water): practically insoluble in water; anti-inflammatory activity higher than that of ibuprofen until the 6th hour ([6]; equimolar doses, versus ibuprofen): 48%
